The values that follow come from patent US8426406B2, “Glucocorticoid receptor agonist comprising 2,2,4-trimethyl-6-phenyl-1,2-dihydroquinoline derivatives having substituted oxy group” (Santen Pharmaceutical Co., Ltd., priority 2008, dated 2013).

Assay [1] deals with allergic conjunctivitis model in mice. Briefly: Inhibitory effect on the vascular hyper-permeability in allergic conjunctivitis model. It counts as in vivo. To be noted: Mus musculus, 1% (W/V) test compound suspension instilled to the right eye three times before ovalbumin instillation, dye leakage vs vehicle, mean of 5-6 eyes, read-out: The inhibition ratio of the vascular hyper-permeability (%). The procedure:
In order to evaluate anti-allergic effect, inhibitory effect on the vascular hyper-permeability in allergic conjunctivitis model in mice was examined. This effect was calculated based on dye leakages of vehicle-treated group (control group) and test compound-treated group.
By adding 0.5% polysorbate 80/saline to the test compound, a 1% (W/V) test compound suspension was prepared.
1) Ovalbumin absorbed on aluminum hydroxide gel was dissolved in saline (20 μg ovalbumin/mL), and male BALE/c mice, 6 weeks old, were actively sensitized to the antigen by intraperitoneal injections of 500 μL of it.
2) On the 6th day from sensitization, sensitized mice were boosted by additional intraperitoneal injections of 500 μL ovalbumin absorbed on aluminum hydroxide gel (20 μg ovalbumin/mL).
3) On the 11th day, 12th day, 13th day, 14th day and 15th day from the first sensitization, allergic conjunctivitis were induced by installations to the right eyes of the mice of […] of 50% glycerol solution containing 15% (W/V) ovalbumin.
4) […] of test compound suspension per eye was instilled to the right eye of the above mice 15 min, 1 hr and 3 hrs before ovalbumin instillation (three times) on the 15th day from sensitization. In vehicle-treated group (control group), the mice were instilled with 0.5% polysorbate 80/saline in substitution for test compound suspension.
5) Just before ovalbumin instillation on the 15th day from sensitization, all animals received a tail intravenous injection of 0.1% Evans blue dye. The right periocular tissues of the mice, which were the leaked parts of dye, were collected 30 min after ovalbumin instillation. The dye was extracted from the tissues with the dye extraction liquid. Then the absorbance of the dye extract was measured. The dye leakage was calculated from the absorbance value, and the inhibition ratio of the vascular hyper-permeability of test compound-treated group was calculated according to calculation equation 1. The inhibition ratio of the vascular hyper-permeability of test compound-treated group(%)=(1−Ax/Ao)×100 (Calculation Equation 1) Ao: Dye leakage in vehicle-treated group (control group) Ax: Dye leakage in test compound-treated group (Test Results and Discussion)

In assay [2] the test system is IL-6 production induced by lipopolysaccharide (LPS) in human corneal epithelial cells. Briefly: Evaluation test for GR agonist activity: inhibition of LPS-induced IL-6 production in human corneal epithelial cells (HCE-T). It counts as cell-based. Conditions: Corneal epithelial cell, 10 μL of 100 μM test compound solution per well, 4 hours incubation, efficacy relative to DEX. The procedure, abridged:
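SV40-immortalized HCE-T cells were treated with test compound (100 μM solution, stock before dilution into well) plus LPS (1 μg/mL solution, likewise pre-dilution) for 4 hours in 10% FBS-DMEM/F12. IL-6 in supernatants was measured by HTRF. Inhibition was calculated relative to LPS-plus-DMSO and no-LPS controls, and efficacy was expressed as % of DEX inhibition.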

The subject of assay [3] is corneal disorder model in rats. Briefly: Test for therapeutic effects on corneal disorder (corneal disorder model associated with dry eye). It counts as in vivo. Conditions: male SD rats, exorbital lacrimal gland removed; 0.03% (W/V) ophthalmic suspension instilled 6 times a day for 14 days; fluorescein staining score; 8 eyes in 4 animals. The procedure: In order to evaluate the improvement effect of corneal disorder with dry eye of the present compounds, using male SD rats, corneal disorder models were produced according to the method of Fujihara et al. (Invest. Ophthalmol. Vis. Sci. 42 (1): 96-100 (2001)). After the production of the corneal disorder models, the improvement ratio of the corneal disorder was assessed according to the method of Murakami et al. (Journal of the eye 21 (1): 87-90 (2004)).
A 0.03% (W/V) test compound ophthalmic suspension was prepared by adding vehicle containing polysorbate 80 and the general additives to test compound.
1) Male SD rats were systemically anesthetized by an administration of Somnopentyl. Subsequently the exorbital lacrimal gland of each rat was removed and a corneal damage was induced over a period of 2 months.
2) The test compound ophthalmic suspension was instilled into both eyes 6 times a day for 14 days. In a control group, vehicle was instilled in the same way.
3) Fourteen days after the start of instillation, the damaged parts of the cornea were stained with fluorescein. For each of the upper, middle and lower parts of the cornea, the degree of fluorescein staining was evaluated by scoring according to the criteria shown below and the mean value of the total scores for each of the above-mentioned parts was calculated. The score range in each divided section is 0 to 3 and the minimum score unit is 0.5. 0.5 was provided as an intermediate value between each score 0, 1, 2, 3.
1: Scattered staining (each punctate staining being separated)
2: Moderate staining (a part of punctate staining being adjacent)
3: Heavy staining (each punctate staining being adjacent) Improvement ratio of test compound instillation group(%)=(Ao−Ax)/(Ao−An)×100 (Calculation Equation)
Ao: the mean value of corneal disorder score in vehicle instilled (control) group
Ax: the mean value of corneal disorder score in test compound instilled group
An: the mean value of corneal disorder score in normal rat group.

For `COc1cc(OC(=O)c2ccsc2)ccc1-c1ccc2c(c1COc1cc(F)ccc1C)C(C)=CC(C)(C)N2` [Compound 1-12, 5-(5-Fluoro-2-methylphenoxymethyl)-6-[2-methoxy-4-(thiophen-3-ylcarbonyloxy)phenyl]-2,2,4-trimethyl-1,2-dihydroquinoline], the inhibition in vivo at 10000 µg/mL in assay [1] turned out to be 17%. This molecule also returned an Emax in assay [2] of 85%. The “Improvement ratio of corneal disorder (%)” value (“Improvement ratio … (%)” for short) in assay [3] is 69%.

Consider `COc1cc(OC(=O)c2ccco2)ccc1-c1ccc2c(c1COc1cc(F)ccc1C)C(C)=CC(C)(C)N2` [Compound 1-13, 5-(5-Fluoro-2-methylphenoxymethyl)-6-[4-(furan-2-ylcarbonyloxy)-2-methoxyphenyl]-2,2,4-trimethyl-1,2-dihydroquinoline], for which the inhibition in vivo at 10000 µg/mL in assay [1] was 24%. The molecule also displayed an Emax in assay [2] of 94%. Besides, the “Improvement ratio … (%)” value in assay [3] stood at 61%.

Regarding `COc1cc(OC(=O)c2cccnc2)ccc1-c1ccc2c(c1COc1cc([N+](=O)[O-])ccc1C)C(C)=CC(C)(C)N2` [Compound 1-72, 6-[2-Methoxy-4-(pyridin-3-ylcarbonyloxy)phenyl]-5-(2-methyl-5-nitrophenoxymethyl)-2,2,4-trimethyl-1,2-dihydroquinoline], the inhibition in vivo at 10000 µg/mL in assay [1] came out at 21%. In assay [2], this molecule displayed an Emax of 82%. Moreover, the “Improvement ratio … (%)” value in assay [3] worked out at 67%.

On to `CCCS(=O)(=O)Oc1ccc(-c2ccc3c(c2CNc2ccccc2OC)C(C)=CC(C)(C)N3)c(OC)c1` [Compound 4-18, 5-(2-Methoxyphenylaminomethyl)-6-(2-methoxy-4-propylsulfonyloxyphenyl)-2,2,4-trimethyl-1,2-dihydroquinoline], for which the inhibition in vivo at 10000 µg/mL in assay [1] was 21%. The Emax in assay [2] was found to be 89%. Besides, in assay [3], the “Improvement ratio … (%)” value was 56%.

By Emax is commonly meant the maximal effect, on the per cent scale that the assay sets.
